What follows are compounds tested on CAL-85-1 (assay: normalised response (% of control), CellTiter-Glo; higher = more viable cells (100 = DMSO, 0 = benzethonium chloride kill control)). Settings: incubation time: 72 h.
Procedure: (§1)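 DSRT, 72 h incubation, CellTox Green / CellTiter-Glo readout. Signal is normalised to DMSO and benzethonium chloride controls. Value is the normalised response at dose 3.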

| Structure (SMILES) | normalised response [%] |
| --- | --- |
| O=P1(NCCCl)OCCCN1CCCl (stereo not given) [Ifosfamide] (100 nM) | 95.1 |
| CC1(C)NC(=O)N(c2ccc([N+](=O)[O-])c(C(F)(F)F)c2)C1=O [Nilutamide] (100 nM) | 101 |

These compounds were tested on MCF-10A in the same assay as above. Settings: incubation time: 72 h.
Procedure: as §1

| Structure (SMILES) | normalised response [%] |
| --- | --- |
| CCCCCCCCCCCCCCCCCCOP(=O)([O-])OC1CC[N+](C)(C)CC1 [Perifosine] (25 nM) | 105 |
| C=C(c1ccc(C(=O)O)cc1)c1cc2c(cc1C)C(C)(C)CCC2(C)C [Bexarotene] (100 nM) | 91.8 |
| CS(=O)(=O)c1ccc(C2=C(c3ccccc3)C(=O)OC2)cc1 [Rofecoxib] (100 nM) | 114 |
| COc1cc2nccc(Oc3ccc(NC(=O)C4(C(=O)Nc5ccc(F)cc5)CC4)cc3)c2cc1OC [Cabozantinib] (10 nM) | 97.2 |
| Oc1nc(-c2ccc(C(F)(F)F)cc2)nc2c1CSCC2 [XAV-939] (100 nM) | 98.5 |
| CN(N=O)C(=O)N[C@@H](C=O)[C@@H](O)[C@H](O)[C@H](O)CO [Streptozocin] (100 nM) | 109 |
| Cn1c(Nc2ccc(C(F)(F)F)cc2)nc2cc(Oc3ccnc(-c4ncc(C(F)(F)F)[nH]4)c3)ccc21 [RAF265] (10 nM) | 118 |
| O=P1(NCCCl)OCCCN1CCCl (stereo not given) [Ifosfamide] (100 nM) | 97.9 |
| CC1(C)NC(=O)N(c2ccc([N+](=O)[O-])c(C(F)(F)F)c2)C1=O [Nilutamide] (100 nM) | 105 |

Each compound was assayed on HCC1937 (assay: normalised response (% of control), CellTox Green; higher = less cell death (100 = DMSO, 0 = benzethonium chloride kill control)). Settings: incubation time: 72 h.
Procedure, shortened: (§2)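 For each plate, 0.1 % DMSO was set to 100 and a positive kill control to 0. Breast cancer cell lines (20 µl suspension) were seeded into 384-well plates already holding compound at 5 concentrations in 10-fold steps over a 10,000-fold range chosen per compound, and incubated for 72 h. CellTox Green fluorescence at 485/520 nm was read before CellTiter-Glo luminescence, which followed 10 min at room temperature. Each value is the normalised signal at one concentration.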

| Structure (SMILES) | normalised response [%] |
| --- | --- |
| CCCCCCCCCCCCCCCCCCOP(=O)([O-])OC1CC[N+](C)(C)CC1 [Perifosine] (25 nM) | 88 |
| C=C(c1ccc(C(=O)O)cc1)c1cc2c(cc1C)C(C)(C)CCC2(C)C [Bexarotene] (100 nM) | 105 |
| CS(=O)(=O)c1ccc(C2=C(c3ccccc3)C(=O)OC2)cc1 [Rofecoxib] (100 nM) | 68.7 |
| COc1cc2nccc(Oc3ccc(NC(=O)C4(C(=O)Nc5ccc(F)cc5)CC4)cc3)c2cc1OC [Cabozantinib] (10 nM) | 102 |
| Oc1nc(-c2ccc(C(F)(F)F)cc2)nc2c1CSCC2 [XAV-939] (100 nM) | 104 |
| CN(N=O)C(=O)N[C@@H](C=O)[C@@H](O)[C@H](O)[C@H](O)CO [Streptozocin] (100 nM) | 73.6 |
| CC1(C)NC(=O)N(c2ccc([N+](=O)[O-])c(C(F)(F)F)c2)C1=O [Nilutamide] (100 nM) | 119 |

The compounds below were run on CAL-51 in the same assay as above. Settings: incubation time: 72 h.
Procedure, shortened: as §2

| Structure (SMILES) | normalised response [%] |
| --- | --- |
| CCCCCCCCCCCCCCCCCCOP(=O)([O-])OC1CC[N+](C)(C)CC1 [Perifosine] (25 nM) | 93.7 |
| C=C(c1ccc(C(=O)O)cc1)c1cc2c(cc1C)C(C)(C)CCC2(C)C [Bexarotene] (100 nM) | 96.9 |
| CS(=O)(=O)c1ccc(C2=C(c3ccccc3)C(=O)OC2)cc1 [Rofecoxib] (100 nM) | 111 |
| COc1cc2nccc(Oc3ccc(NC(=O)C4(C(=O)Nc5ccc(F)cc5)CC4)cc3)c2cc1OC [Cabozantinib] (10 nM) | 102 |
| Oc1nc(-c2ccc(C(F)(F)F)cc2)nc2c1CSCC2 [XAV-939] (100 nM) | 90.2 |
| CN(N=O)C(=O)N[C@@H](C=O)[C@@H](O)[C@H](O)[C@H](O)CO [Streptozocin] (100 nM) | 105 |
| Cn1c(Nc2ccc(C(F)(F)F)cc2)nc2cc(Oc3ccnc(-c4ncc(C(F)(F)F)[nH]4)c3)ccc21 [RAF265] (10 nM) | 92.7 |
| O=P1(NCCCl)OCCCN1CCCl (stereo not given) [Ifosfamide] (100 nM) | 90.4 |
| CC1(C)NC(=O)N(c2ccc([N+](=O)[O-])c(C(F)(F)F)c2)C1=O [Nilutamide] (100 nM) | 109 |

The compounds below were run on MDA-MB-436 in the same assay as above. Settings: incubation time: 72 h.
Procedure, shortened: as §2

| Structure (SMILES) | normalised response [%] |
| --- | --- |
| CCCCCCCCCCCCCCCCCCOP(=O)([O-])OC1CC[N+](C)(C)CC1 [Perifosine] (25 nM) | 112 |
| C=C(c1ccc(C(=O)O)cc1)c1cc2c(cc1C)C(C)(C)CCC2(C)C [Bexarotene] (100 nM) | 94.1 |
| CS(=O)(=O)c1ccc(C2=C(c3ccccc3)C(=O)OC2)cc1 [Rofecoxib] (100 nM) | 104 |
| COc1cc2nccc(Oc3ccc(NC(=O)C4(C(=O)Nc5ccc(F)cc5)CC4)cc3)c2cc1OC [Cabozantinib] (10 nM) | 96.2 |
| Oc1nc(-c2ccc(C(F)(F)F)cc2)nc2c1CSCC2 [XAV-939] (100 nM) | 102 |
| CN(N=O)C(=O)N[C@@H](C=O)[C@@H](O)[C@H](O)[C@H](O)CO [Streptozocin] (100 nM) | 111 |
| Cn1c(Nc2ccc(C(F)(F)F)cc2)nc2cc(Oc3ccnc(-c4ncc(C(F)(F)F)[nH]4)c3)ccc21 [RAF265] (10 nM) | 90.1 |
| O=P1(NCCCl)OCCCN1CCCl (stereo not given) [Ifosfamide] (100 nM) | 102 |

What follows are compounds tested on DU-4475 in the same assay as above. Settings: incubation time: 72 h.
Procedure, shortened: as §2

| Structure (SMILES) | normalised response [%] |
| --- | --- |
| CCCCCCCCCCCCCCCCCCOP(=O)([O-])OC1CC[N+](C)(C)CC1 [Perifosine] (25 nM) | 104 |
| C=C(c1ccc(C(=O)O)cc1)c1cc2c(cc1C)C(C)(C)CCC2(C)C [Bexarotene] (100 nM) | 98.8 |
| CS(=O)(=O)c1ccc(C2=C(c3ccccc3)C(=O)OC2)cc1 [Rofecoxib] (100 nM) | 108 |
| COc1cc2nccc(Oc3ccc(NC(=O)C4(C(=O)Nc5ccc(F)cc5)CC4)cc3)c2cc1OC [Cabozantinib] (10 nM) | 99.5 |
| Oc1nc(-c2ccc(C(F)(F)F)cc2)nc2c1CSCC2 [XAV-939] (100 nM) | 102 |
| CN(N=O)C(=O)N[C@@H](C=O)[C@@H](O)[C@H](O)[C@H](O)CO [Streptozocin] (100 nM) | 105 |
| Cn1c(Nc2ccc(C(F)(F)F)cc2)nc2cc(Oc3ccnc(-c4ncc(C(F)(F)F)[nH]4)c3)ccc21 [RAF265] (10 nM) | 103 |
| O=P1(NCCCl)OCCCN1CCCl (stereo not given) [Ifosfamide] (100 nM) | 97.9 |
| CC1(C)NC(=O)N(c2ccc([N+](=O)[O-])c(C(F)(F)F)c2)C1=O [Nilutamide] (100 nM) | 103 |

The compounds below were run on BT-474 in the same assay as above. Settings: incubation time: 72 h.
Procedure, shortened: as §2

| Structure (SMILES) | normalised response [%] |
| --- | --- |
| CCCCCCCCCCCCCCCCCCOP(=O)([O-])OC1CC[N+](C)(C)CC1 [Perifosine] (25 nM) | 102 |
| C=C(c1ccc(C(=O)O)cc1)c1cc2c(cc1C)C(C)(C)CCC2(C)C [Bexarotene] (100 nM) | 97 |
| CS(=O)(=O)c1ccc(C2=C(c3ccccc3)C(=O)OC2)cc1 [Rofecoxib] (100 nM) | 104 |
| COc1cc2nccc(Oc3ccc(NC(=O)C4(C(=O)Nc5ccc(F)cc5)CC4)cc3)c2cc1OC [Cabozantinib] (10 nM) | 95.6 |
| Oc1nc(-c2ccc(C(F)(F)F)cc2)nc2c1CSCC2 [XAV-939] (100 nM) | 101 |
| CN(N=O)C(=O)N[C@@H](C=O)[C@@H](O)[C@H](O)[C@H](O)CO [Streptozocin] (100 nM) | 103 |
| Cn1c(Nc2ccc(C(F)(F)F)cc2)nc2cc(Oc3ccnc(-c4ncc(C(F)(F)F)[nH]4)c3)ccc21 [RAF265] (10 nM) | 96.2 |
| O=P1(NCCCl)OCCCN1CCCl (stereo not given) [Ifosfamide] (100 nM) | 100 |
| CC1(C)NC(=O)N(c2ccc([N+](=O)[O-])c(C(F)(F)F)c2)C1=O [Nilutamide] (100 nM) | 101 |

Each compound was assayed on MDA-MB-453 in the same assay as above. Settings: incubation time: 72 h.
Procedure, shortened: as §2

| Structure (SMILES) | normalised response [%] |
| --- | --- |
| CCCCCCCCCCCCCCCCCCOP(=O)([O-])OC1CC[N+](C)(C)CC1 [Perifosine] (25 nM) | 99.7 |
| C=C(c1ccc(C(=O)O)cc1)c1cc2c(cc1C)C(C)(C)CCC2(C)C [Bexarotene] (100 nM) | 96.1 |
| CS(=O)(=O)c1ccc(C2=C(c3ccccc3)C(=O)OC2)cc1 [Rofecoxib] (100 nM) | 106 |
| COc1cc2nccc(Oc3ccc(NC(=O)C4(C(=O)Nc5ccc(F)cc5)CC4)cc3)c2cc1OC [Cabozantinib] (10 nM) | 101 |
| Oc1nc(-c2ccc(C(F)(F)F)cc2)nc2c1CSCC2 [XAV-939] (100 nM) | 105 |
| CN(N=O)C(=O)N[C@@H](C=O)[C@@H](O)[C@H](O)[C@H](O)CO [Streptozocin] (100 nM) | 104 |
| Cn1c(Nc2ccc(C(F)(F)F)cc2)nc2cc(Oc3ccnc(-c4ncc(C(F)(F)F)[nH]4)c3)ccc21 [RAF265] (10 nM) | 108 |
| O=P1(NCCCl)OCCCN1CCCl (stereo not given) [Ifosfamide] (100 nM) | 89.3 |
| CC1(C)NC(=O)N(c2ccc([N+](=O)[O-])c(C(F)(F)F)c2)C1=O [Nilutamide] (100 nM) | 99.1 |

These compounds were tested on Hs578T in the same assay as above. Settings: incubation time: 72 h.
Procedure, shortened: as §2

| Structure (SMILES) | normalised response [%] |
| --- | --- |
| CCCCCCCCCCCCCCCCCCOP(=O)([O-])OC1CC[N+](C)(C)CC1 [Perifosine] (25 nM) | 105 |
| C=C(c1ccc(C(=O)O)cc1)c1cc2c(cc1C)C(C)(C)CCC2(C)C [Bexarotene] (100 nM) | 98.7 |
| CS(=O)(=O)c1ccc(C2=C(c3ccccc3)C(=O)OC2)cc1 [Rofecoxib] (100 nM) | 103 |
| COc1cc2nccc(Oc3ccc(NC(=O)C4(C(=O)Nc5ccc(F)cc5)CC4)cc3)c2cc1OC [Cabozantinib] (10 nM) | 69.2 |
| Oc1nc(-c2ccc(C(F)(F)F)cc2)nc2c1CSCC2 [XAV-939] (100 nM) | 109 |
| CN(N=O)C(=O)N[C@@H](C=O)[C@@H](O)[C@H](O)[C@H](O)CO [Streptozocin] (100 nM) | 52.8 |
| Cn1c(Nc2ccc(C(F)(F)F)cc2)nc2cc(Oc3ccnc(-c4ncc(C(F)(F)F)[nH]4)c3)ccc21 [RAF265] (10 nM) | 98 |
| O=P1(NCCCl)OCCCN1CCCl (stereo not given) [Ifosfamide] (100 nM) | 56.1 |
| CC1(C)NC(=O)N(c2ccc([N+](=O)[O-])c(C(F)(F)F)c2)C1=O [Nilutamide] (100 nM) | 109 |

The compounds below were run on MFM-223 in the same assay as above. Settings: incubation time: 72 h.
Procedure, shortened: as §2

| Structure (SMILES) | normalised response [%] |
| --- | --- |
| CCCCCCCCCCCCCCCCCCOP(=O)([O-])OC1CC[N+](C)(C)CC1 [Perifosine] (25 nM) | 93.5 |
| C=C(c1ccc(C(=O)O)cc1)c1cc2c(cc1C)C(C)(C)CCC2(C)C [Bexarotene] (100 nM) | 81.8 |
| CS(=O)(=O)c1ccc(C2=C(c3ccccc3)C(=O)OC2)cc1 [Rofecoxib] (100 nM) | 88.2 |
| COc1cc2nccc(Oc3ccc(NC(=O)C4(C(=O)Nc5ccc(F)cc5)CC4)cc3)c2cc1OC [Cabozantinib] (10 nM) | 100 |
| Oc1nc(-c2ccc(C(F)(F)F)cc2)nc2c1CSCC2 [XAV-939] (100 nM) | 96.6 |
| CN(N=O)C(=O)N[C@@H](C=O)[C@@H](O)[C@H](O)[C@H](O)CO [Streptozocin] (100 nM) | 75.2 |
| Cn1c(Nc2ccc(C(F)(F)F)cc2)nc2cc(Oc3ccnc(-c4ncc(C(F)(F)F)[nH]4)c3)ccc21 [RAF265] (10 nM) | 103 |
| O=P1(NCCCl)OCCCN1CCCl (stereo not given) [Ifosfamide] (100 nM) | 97.8 |
| CC1(C)NC(=O)N(c2ccc([N+](=O)[O-])c(C(F)(F)F)c2)C1=O [Nilutamide] (100 nM) | 103 |

From the supplement of paper PMC4862054
